# Test results published in the supplement of paper PMC10307832.
# Assays:
# Experiment in all cases: relative viability (nuclei count vs DMSO), 5 days (fraction); higher = more cells survive
# [1] = tested on: 201T
# Procedure, shortened: (§1)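 For relative viability, nuclei counts in treated wells were divided by those in vehicle wells. Lung cancer cell lines had been pin-tool dosed in 1536-well plates the day after seeding and cultured for 5 days, then fixed and stained in one step (final 0.05% Triton X-100, 1% formaldehyde, 1 ug/ml Hoechst) and imaged at 4×. Doses were one drug alone or a fixed anchor-drug dose plus five library-drug doses (not always all listed) in √10 steps, and values are duplicate-plate medians.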
# [2] = tested on: BEN
# Procedure, shortened: as §1
# [3] = tested on: CAL-12T
# Procedure, shortened: as §1
# [4] = tested on: HCC-78
# Procedure, shortened: as §1
# [5] = tested on: HOP-62
# Procedure, shortened: as §1
# [6] = tested on: LCLC-97TM1
# Procedure, shortened: as §1
# [7] = tested on: LOU-NH91
# Procedure, shortened: as §1
# [8] = tested on: NCI-H1355
# Procedure, shortened: as §1
# [9] = tested on: NCI-H1395
# Procedure, shortened: as §1
# [10] = tested on: NCI-H1563
# Procedure, shortened: as §1
# [11] = tested on: NCI-H1651
# Procedure, shortened: as §1
# [12] = tested on: NCI-H1793
# Procedure, shortened: as §1
# [13] = tested on: NCI-H1915
# Procedure, shortened: as §1
# [14] = tested on: NCI-H1944
# Procedure, shortened: as §1
# [15] = tested on: NCI-H2126
# Procedure, shortened: as §1
# [16] = tested on: NCI-H2347
# Procedure, shortened: as §1
# [17] = tested on: NCI-H3122
# Procedure, shortened: as §1
# [18] = tested on: NCI-H322M
# Procedure, shortened: as §1
# [19] = tested on: NCI-H441
# Procedure, shortened: as §1
# [20] = tested on: NCI-H650
# Procedure, shortened: as §1
# [21] = tested on: NCI-H838
# Procedure, shortened: as §1
# [22] = tested on: SK-LU-1
# Procedure, shortened: as §1
# [23] = tested on: SW 1573
# Procedure, shortened: as §1
compound,measurement,setting,value
Cc1csc(=NC2CCCCC2)n1/N=C/c1ccc(O)c(O)c1O [MIM1] + C[C@]1(O)C[C@@H](c2nc(-c3ccc4ccc(-c5ccccc5)nc4c3)c3c(N)nccn32)C1 [Linsitinib] (partner 1 µM),relative viability,[1]; first compound 0.2 µM,1.02
same,relative viability,[1]; first compound 0.6325 µM,1.04
same,relative viability,[1]; first compound 2 µM,1.04
same,relative viability,[1]; first compound 6.325 µM,1.03
same,relative viability,[1]; first compound 20 µM,1.25
same,relative viability,[2]; first compound 0.2 µM,0.888
same,relative viability,[2]; first compound 0.6325 µM,0.877
same,relative viability,[2]; first compound 2 µM,0.981
same,relative viability,[2]; first compound 6.325 µM,0.826
same,relative viability,[2]; first compound 20 µM,0.42
same,relative viability,[3]; first compound 0.2 µM,0.803
same,relative viability,[3]; first compound 0.6325 µM,0.677
same,relative viability,[3]; first compound 2 µM,0.695
same,relative viability,[3]; first compound 6.325 µM,0.634
same,relative viability,[3]; first compound 20 µM,0.225
same,relative viability,[4]; first compound 0.2 µM,0.551
same,relative viability,[4]; first compound 0.6325 µM,0.594
same,relative viability,[4]; first compound 2 µM,0.488
same,relative viability,[4]; first compound 6.325 µM,0.439
same,relative viability,[4]; first compound 20 µM,0.541
same,relative viability,[5]; first compound 0.2 µM,0.977
same,relative viability,[5]; first compound 0.6325 µM,1.04
same,relative viability,[5]; first compound 2 µM,0.905
same,relative viability,[5]; first compound 6.325 µM,0.658
same,relative viability,[5]; first compound 20 µM,0.936
same,relative viability,[6]; first compound 0.2 µM,0.171
same,relative viability,[6]; first compound 0.6325 µM,0.226
same,relative viability,[6]; first compound 2 µM,0.166
same,relative viability,[6]; first compound 6.325 µM,0.207
same,relative viability,[6]; first compound 20 µM,0.214
same,relative viability,[7]; first compound 0.2 µM,0.882
same,relative viability,[7]; first compound 0.6325 µM,0.978
same,relative viability,[7]; first compound 2 µM,0.728
same,relative viability,[7]; first compound 6.325 µM,0.851
same,relative viability,[7]; first compound 20 µM,0.592
same,relative viability,[8]; first compound 0.2 µM,0.812
same,relative viability,[8]; first compound 0.6325 µM,0.882
same,relative viability,[8]; first compound 2 µM,0.898
same,relative viability,[8]; first compound 6.325 µM,0.74
same,relative viability,[8]; first compound 20 µM,0.879
same,relative viability,[9]; first compound 0.2 µM,0.927
same,relative viability,[9]; first compound 0.6325 µM,1.03
same,relative viability,[9]; first compound 2 µM,1.07
same,relative viability,[9]; first compound 6.325 µM,0.606
same,relative viability,[9]; first compound 20 µM,0.355
same,relative viability,[10]; first compound 0.2 µM,1.13
same,relative viability,[10]; first compound 0.6325 µM,1.29
same,relative viability,[10]; first compound 2 µM,1.1
same,relative viability,[10]; first compound 6.325 µM,0.977
same,relative viability,[10]; first compound 20 µM,0.957
same,relative viability,[11]; first compound 0.2 µM,0.925
same,relative viability,[11]; first compound 0.6325 µM,0.993
same,relative viability,[11]; first compound 2 µM,1
same,relative viability,[11]; first compound 6.325 µM,0.825
same,relative viability,[11]; first compound 20 µM,0.797
same,relative viability,[12]; first compound 0.2 µM,0.799
same,relative viability,[12]; first compound 0.6325 µM,0.902
same,relative viability,[12]; first compound 2 µM,0.809
same,relative viability,[12]; first compound 6.325 µM,0.925
same,relative viability,[12]; first compound 20 µM,1.02
same,relative viability,[13]; first compound 0.2 µM,1.09
same,relative viability,[13]; first compound 0.6325 µM,1.03
same,relative viability,[13]; first compound 2 µM,1.08
same,relative viability,[13]; first compound 6.325 µM,0.978
same,relative viability,[13]; first compound 20 µM,0.872
same,relative viability,[14]; first compound 0.2 µM,1.12
same,relative viability,[14]; first compound 0.6325 µM,1.13
same,relative viability,[14]; first compound 2 µM,0.923
same,relative viability,[14]; first compound 6.325 µM,1
same,relative viability,[14]; first compound 20 µM,1.46
same,relative viability,[15]; first compound 0.2 µM,0.715
same,relative viability,[15]; first compound 0.6325 µM,0.695
same,relative viability,[15]; first compound 2 µM,0.744
same,relative viability,[15]; first compound 6.325 µM,0.707
same,relative viability,[15]; first compound 20 µM,0.702
same,relative viability,[16]; first compound 0.2 µM,0.985
same,relative viability,[16]; first compound 0.6325 µM,0.994
same,relative viability,[16]; first compound 2 µM,0.98
same,relative viability,[16]; first compound 6.325 µM,0.736
same,relative viability,[16]; first compound 20 µM,0.656
same,relative viability,[17]; first compound 0.2 µM,0.959
same,relative viability,[17]; first compound 0.6325 µM,1.08
same,relative viability,[17]; first compound 2 µM,1.12
same,relative viability,[17]; first compound 6.325 µM,0.926
same,relative viability,[17]; first compound 20 µM,0.396
same,relative viability,[18]; first compound 0.2 µM,1.01
same,relative viability,[18]; first compound 0.6325 µM,0.981
same,relative viability,[18]; first compound 2 µM,1.05
same,relative viability,[18]; first compound 6.325 µM,0.905
same,relative viability,[18]; first compound 20 µM,0.912
same,relative viability,[19]; first compound 0.2 µM,0.612
same,relative viability,[19]; first compound 0.6325 µM,0.528
same,relative viability,[19]; first compound 2 µM,0.543
same,relative viability,[19]; first compound 6.325 µM,0.709
same,relative viability,[19]; first compound 20 µM,0.145
same,relative viability,[20]; first compound 0.2 µM,0.964
same,relative viability,[20]; first compound 0.6325 µM,0.843
same,relative viability,[20]; first compound 2 µM,0.938
same,relative viability,[20]; first compound 6.325 µM,0.824
same,relative viability,[20]; first compound 20 µM,0.234
same,relative viability,[21]; first compound 0.2 µM,0.887
same,relative viability,[21]; first compound 0.6325 µM,1.1
same,relative viability,[21]; first compound 2 µM,0.851
same,relative viability,[21]; first compound 6.325 µM,0.765
same,relative viability,[21]; first compound 20 µM,0.464
same,relative viability,[22]; first compound 0.2 µM,1.12
same,relative viability,[22]; first compound 0.6325 µM,1.26
same,relative viability,[22]; first compound 2 µM,1.29
same,relative viability,[22]; first compound 6.325 µM,1.03
same,relative viability,[22]; first compound 20 µM,0.996
same,relative viability,[23]; first compound 0.2 µM,0.872
same,relative viability,[23]; first compound 0.6325 µM,0.792
same,relative viability,[23]; first compound 2 µM,0.678
same,relative viability,[23]; first compound 6.325 µM,0.767
same,relative viability,[23]; first compound 20 µM,0.607
